# Experiment: Phase 1/2 study in mCRPC participants: safety
# [1] = all-causality TEAEs, Phase 1, N = 34
# [2] = all-causality TEAEs, Phase 2, N = 13
smiles,measurement,setting,value
"COc1cc(O[C@H]2C(C)(C)[C@H](NC(=O)c3ccc(N4CCC(CN5CCN(c6ccc(C(=O)N[C@H]7CCC(=O)NC7=O)c(F)c6)CC5)CC4)cc3)C2(C)C)ccc1C#N [Compound A, 4-(4-((1-(4-(((1R,3R)-3-(4-cyano-3-methoxyphenoxy)-2,2,4,4-tetramethylcyclobutyl)carbamoyl)phenyl)piperidin-4-yl)methyl)piperazin-1-yl)-N—((S)-2,6-dioxopiperidin-3-yl)-2-fluorobenzamide]",Fatigue: Grade 5,[1],0 participants
same,Gastrointestinal disorders: Any Grade,[1],15 participants
same,Gastrointestinal disorders: Grade 3,[1],2 participants
same,Gastrointestinal disorders: Grade 4,[1],0 participants
same,Gastrointestinal disorders: Grade 5,[1],0 participants
same,General disorders and administration site conditions: Any Grade,[1],16 participants
same,General disorders and administration site conditions: Grade 3,[1],1 participants
same,General disorders and administration site conditions: Grade 4,[1],0 participants
same,General disorders and administration site conditions: Grade 5,[1],0 participants
same,Hyponatraemia: Any Grade,[1],4 participants
same,Hyponatraemia: Grade 3,[1],0 participants
same,Hyponatraemia: Grade 4,[1],0 participants
same,Hyponatraemia: Grade 5,[1],0 participants
same,Hypophosphataemia: Any Grade,[1],4 participants
same,Hypophosphataemia: Grade 3,[1],0 participants
same,Hypophosphataemia: Grade 4,[1],0 participants
same,Hypophosphataemia: Grade 5,[1],0 participants
same,Insomnia: Any Grade,[1],5 participants
same,Insomnia: Grade 3,[1],0 participants
same,Insomnia: Grade 4,[1],0 participants
same,Insomnia: Grade 5,[1],0 participants
same,Investigations: Any Grade,[1],19 participants
same,Investigations: Grade 3,[1],1 participants
same,Investigations: Grade 4,[1],1 participants
same,Investigations: Grade 5,[1],0 participants
same,Lymphocyte count decreased: Any Grade,[1],4 participants
same,Lymphocyte count decreased: Grade 3,[1],0 participants
same,Lymphocyte count decreased: Grade 4,[1],1 participants
same,Lymphocyte count decreased: Grade 5,[1],0 participants
same,Metabolism and nutrition disorders: Any Grade,[1],15 participants
same,Metabolism and nutrition disorders: Grade 3,[1],1 participants
same,Metabolism and nutrition disorders: Grade 4,[1],0 participants
same,Metabolism and nutrition disorders: Grade 5,[1],0 participants
same,Nausea: Any Grade,[1],7 participants
same,Nausea: Grade 3,[1],0 participants
same,Nausea: Grade 4,[1],0 participants
same,Nausea: Grade 5,[1],0 participants
same,Neutrophil count decreased: Any Grade,[1],4 participants
same,Neutrophil count decreased: Grade 3,[1],0 participants
same,Neutrophil count decreased: Grade 4,[1],0 participants
same,Neutrophil count decreased: Grade 5,[1],0 participants
same,Participants with any TEAEs: Any Grade,[1],33 participants
same,Participants with any TEAEs: Grade 3,[1],10 participants
same,Participants with any TEAEs: Grade 4,[1],2 participants
same,Participants with any TEAEs: Grade 5,[1],1 (2.9) participants
same,Psychiatric disorders: Any Grade,[1],7 participants
same,Psychiatric disorders: Grade 3,[1],0 participants
same,Psychiatric disorders: Grade 4,[1],0 participants
same,Psychiatric disorders: Grade 5,[1],0 participants
same,Rash maculo-papular: Any Grade,[1],4 participants
same,Rash maculo-papular: Grade 3,[1],0 participants
same,Rash maculo-papular: Grade 4,[1],0 participants
same,Rash maculo-papular: Grade 5,[1],0 participants
same,"Respiratory, thoracic and mediastinal disorders: Any Grade",[1],6 participants
same,"Respiratory, thoracic and mediastinal disorders: Grade 3",[1],2 participants
same,"Respiratory, thoracic and mediastinal disorders: Grade 4",[1],0 participants
same,"Respiratory, thoracic and mediastinal disorders: Grade 5",[1],0 participants
same,Skin and subcutaneous tissue disorders: Any Grade,[1],10 participants
same,Skin and subcutaneous tissue disorders: Grade 3,[1],0 participants
same,Skin and subcutaneous tissue disorders: Grade 4,[1],0 participants
same,Skin and subcutaneous tissue disorders: Grade 5,[1],0 participants
same,Abdominal pain: Any Grade,[2],2 participants
same,Abdominal pain: Grade 3,[2],1 participants
same,Abdominal pain: Grade 4,[2],0 participants
same,Abdominal pain: Grade 5,[2],0 participants
same,Alopecia: Any Grade,[2],2 participants
same,Alopecia: Grade 3,[2],0 participants
same,Alopecia: Grade 4,[2],0 participants
same,Alopecia: Grade 5,[2],0 participants
same,Anaemia: Any Grade,[2],4 participants
same,Anaemia: Grade 3,[2],0 participants
same,Anaemia: Grade 4,[2],0 participants
same,Anaemia: Grade 5,[2],0 participants
same,Blood alkaline phosphatase increased: Any Grade,[2],3 participants
same,Blood alkaline phosphatase increased: Grade 3,[2],0 participants
same,Blood alkaline phosphatase increased: Grade 4,[2],0 participants
same,Blood alkaline phosphatase increased: Grade 5,[2],0 participants
same,Blood and lymphatic system disorders: Any Grade,[2],4 participants
same,Blood and lymphatic system disorders: Grade 3,[2],0 participants
same,Blood and lymphatic system disorders: Grade 4,[2],0 participants
same,Blood and lymphatic system disorders: Grade 5,[2],0 participants
same,Diarrhoea: Any Grade,[2],3 participants
same,Diarrhoea: Grade 3,[2],0 participants
same,Diarrhoea: Grade 4,[2],0 participants
same,Diarrhoea: Grade 5,[2],0 participants
same,Dysgeusia: Any Grade,[2],3 participants
same,Dysgeusia: Grade 3,[2],0 participants
same,Dysgeusia: Grade 4,[2],0 participants
same,Dysgeusia: Grade 5,[2],0 participants
same,Fatigue: Any Grade,[2],2 participants
same,Fatigue: Grade 3,[2],0 participants
same,Fatigue: Grade 4,[2],0 participants
same,Fatigue: Grade 5,[2],0 participants
same,Gastrointestinal disorders: Any Grade,[2],7 participants
same,Gastrointestinal disorders: Grade 3,[2],1 participants
same,Gastrointestinal disorders: Grade 4,[2],0 participants
same,Gastrointestinal disorders: Grade 5,[2],0 participants
same,General disorders and administration site conditions: Any Grade,[2],2 participants
same,General disorders and administration site conditions: Grade 3,[2],0 participants
same,General disorders and administration site conditions: Grade 4,[2],0 participants
same,General disorders and administration site conditions: Grade 5,[2],0 participants
same,Haematuria: Any Grade,[2],3 participants
same,Haematuria: Grade 3,[2],0 participants
same,Haematuria: Grade 4,[2],0 participants
same,Haematuria: Grade 5,[2],0 participants
same,Hypertension: Any Grade,[2],2 participants
same,Hypertension: Grade 3,[2],1 participants
same,Hypertension: Grade 4,[2],0 participants
same,Hypertension: Grade 5,[2],0 participants
same,Investigations: Any Grade,[2],5 participants
same,Investigations: Grade 3,[2],0 participants
same,Investigations: Grade 4,[2],0 participants
same,Investigations: Grade 5,[2],0 participants
same,Nausea: Any Grade,[2],2 participants
same,Nausea: Grade 3,[2],0 participants
same,Nausea: Grade 4,[2],0 participants
same,Nausea: Grade 5,[2],0 participants
same,Nervous system disorders: Any Grade,[2],3 participants
same,Nervous system disorders: Grade 3,[2],0 participants
same,Nervous system disorders: Grade 4,[2],0 participants
same,Nervous system disorders: Grade 5,[2],0 participants
same,Participants with any TEAEs: Any Grade,[2],11 participants
same,Participants with any TEAEs: Grade 3,[2],2 participants
same,Participants with any TEAEs: Grade 4,[2],0 participants
same,Participants with any TEAEs: Grade 5,[2],0 participants
same,Proteinuria: Any Grade,[2],2 participants
same,Proteinuria: Grade 3,[2],0 participants
same,Proteinuria: Grade 4,[2],0 participants
same,Proteinuria: Grade 5,[2],0 participants
same,Renal and urinary disorders: Any Grade,[2],6 participants
same,Renal and urinary disorders: Grade 3,[2],0 participants
same,Renal and urinary disorders: Grade 4,[2],0 participants
same,Renal and urinary disorders: Grade 5,[2],0 participants
same,Skin and subcutaneous tissue disorders: Any Grade,[2],2 participants
same,Skin and subcutaneous tissue disorders: Grade 3,[2],0 participants
same,Skin and subcutaneous tissue disorders: Grade 4,[2],0 participants
same,Skin and subcutaneous tissue disorders: Grade 5,[2],0 participants
same,Vascular disorders: Any Grade,[2],2 participants
same,Vascular disorders: Grade 3,[2],1 participants
same,Vascular disorders: Grade 4,[2],0 participants
same,Vascular disorders: Grade 5,[2],0 participants
same,Vomiting: Any Grade,[2],2 participants
same,Vomiting: Grade 3,[2],0 participants
same,Vomiting: Grade 4,[2],0 participants
same,Vomiting: Grade 5,[2],0 participants
same,deaths considered related to Compound A,study start until data cut-off,No deaths were considered related to Compound A
same,deaths reported,study start until data cut-off,Five

# Source: patent US20240180900A1, “COMPOUNDS AND METHODS FOR THE TARGETED DEGRADATION OF ANDROGEN RECEPTOR” (Arvinas Operations, Inc., priority 2022, published 2024)
